Where two headings read alike, the source gives them in different places.
Legend:
[1] = test system: Lactozym® Pure (lactase, Novozymes A/S); experiment: Lactose turn-over per enzyme molecule in milk at 5°C; type: biochemical
Description: (§1) In a preferred embodiment, the enzyme having lactase activity has an initial lactose turn-over of at least 10 per second per enzyme molecule in milk at 5°C. The initial lactose turn-over may be determined, e.g., when 0-10% of the lactose has been hydrolyzed. The skilled person will know how to determine the initial lactose turn-over per enzyme molecule. For example, it can be a direct measurement of lactose using HPLC or indirect using a glucose detection method.

[2] = test system: Saphera® (lactase, Novozymes A/S); experiment: as above; type: biochemical
Description: as §1

[3] = test system: experimental Bifidobacterium lactase; details: substrate lactose, cited from earlier work
[4] = initial rate (4.7% to 4.23% lactose)

OC[C@H]1O[C@@H](O[C@H]2[C@H](O)[C@@H](O)C(O)O[C@@H]2CO)[C@H](O)[C@@H](O)[C@H]1O (some centres unmarked) [lactose]
average lactose turn-over from initial lactose of 4.7% to 0.01% residual lactose [1]: about 5 sec^-1
average lactose turn-over from initial lactose of 4.7% to 0.1% residual lactose [1]: about 9 sec^-1
initial lactose turn-over per enzyme molecule [1, 4]: about 36 sec^-1
average lactose turn-over from initial lactose of 4.7% to 0.01% residual lactose [2]: about 18 sec^-1
average lactose turn-over from initial lactose of 4.7% to 0.1% residual lactose [2]: about 23 sec^-1
initial lactose turn-over per enzyme molecule [2, 4]: about 89 sec^-1
Km ([3]; at 5°C): 8 mM
Km ([3]; at 37°C): 13 mM

Reference: EP4389886A1, “LACTASE ENZYMES AND METHOD OF PRODUCING A MILK-BASED PRODUCT” (Novozymes A/S, priority 2022, dated 2024)
